Laboratory results: ChEMBL document CHEMBL1201862, “PubChem BioAssay data set” (2004)
Activity calls are given as the source filed them.

Experiments:
[1] = target: T1, DNA repair and recombination protein RAD54-like (Homo sapiens, UniProt Q92698); experiment: RAD54 Holliday junction migration blockers – biochemical, fluorescence, cherry-picked samples, dose series, confirmation (AID 651657); assay type: functional
T1 sequence (Q92698 whole entry): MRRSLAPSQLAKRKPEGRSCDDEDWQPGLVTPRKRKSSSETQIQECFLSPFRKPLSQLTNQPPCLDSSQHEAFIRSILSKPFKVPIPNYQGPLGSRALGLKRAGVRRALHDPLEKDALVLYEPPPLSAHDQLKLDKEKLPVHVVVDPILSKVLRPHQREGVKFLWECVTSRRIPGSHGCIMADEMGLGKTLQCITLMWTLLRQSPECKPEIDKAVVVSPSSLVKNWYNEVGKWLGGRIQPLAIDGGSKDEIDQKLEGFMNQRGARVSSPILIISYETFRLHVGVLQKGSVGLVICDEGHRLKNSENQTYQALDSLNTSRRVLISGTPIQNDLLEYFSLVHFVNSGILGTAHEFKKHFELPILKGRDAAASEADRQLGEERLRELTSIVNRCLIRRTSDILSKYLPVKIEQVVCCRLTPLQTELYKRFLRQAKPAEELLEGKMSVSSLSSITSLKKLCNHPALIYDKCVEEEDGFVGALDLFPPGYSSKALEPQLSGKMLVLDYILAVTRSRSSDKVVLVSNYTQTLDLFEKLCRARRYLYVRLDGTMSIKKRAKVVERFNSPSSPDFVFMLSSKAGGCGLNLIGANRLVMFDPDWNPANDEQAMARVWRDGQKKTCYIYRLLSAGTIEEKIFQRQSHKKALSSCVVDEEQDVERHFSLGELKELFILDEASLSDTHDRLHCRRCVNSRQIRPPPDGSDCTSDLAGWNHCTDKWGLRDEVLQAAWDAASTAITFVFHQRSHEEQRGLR

[2] = target: T2, DNA repair protein RAD52 homolog (Homo sapiens, UniProt P43351); assay type: functional, biochemical
T2 sequence (P43351 whole entry): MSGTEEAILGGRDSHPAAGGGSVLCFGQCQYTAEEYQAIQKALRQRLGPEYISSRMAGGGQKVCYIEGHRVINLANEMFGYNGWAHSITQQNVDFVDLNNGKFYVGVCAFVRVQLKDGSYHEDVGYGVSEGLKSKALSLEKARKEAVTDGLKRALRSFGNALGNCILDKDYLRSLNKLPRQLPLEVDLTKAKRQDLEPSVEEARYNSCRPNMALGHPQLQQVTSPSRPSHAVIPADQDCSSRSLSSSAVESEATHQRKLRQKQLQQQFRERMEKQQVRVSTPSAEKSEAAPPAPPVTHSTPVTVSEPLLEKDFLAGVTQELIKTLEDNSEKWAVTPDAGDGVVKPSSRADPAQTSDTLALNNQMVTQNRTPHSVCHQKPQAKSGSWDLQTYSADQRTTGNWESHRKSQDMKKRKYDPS

Cytochrome P450 1A2 = target: T3, Cytochrome P450 1A2 (Homo sapiens, UniProt P05177);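 further: PubChem cytochrome P450 panel assay, CYP1A2 panel member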
T3 sequence (P05177 whole entry): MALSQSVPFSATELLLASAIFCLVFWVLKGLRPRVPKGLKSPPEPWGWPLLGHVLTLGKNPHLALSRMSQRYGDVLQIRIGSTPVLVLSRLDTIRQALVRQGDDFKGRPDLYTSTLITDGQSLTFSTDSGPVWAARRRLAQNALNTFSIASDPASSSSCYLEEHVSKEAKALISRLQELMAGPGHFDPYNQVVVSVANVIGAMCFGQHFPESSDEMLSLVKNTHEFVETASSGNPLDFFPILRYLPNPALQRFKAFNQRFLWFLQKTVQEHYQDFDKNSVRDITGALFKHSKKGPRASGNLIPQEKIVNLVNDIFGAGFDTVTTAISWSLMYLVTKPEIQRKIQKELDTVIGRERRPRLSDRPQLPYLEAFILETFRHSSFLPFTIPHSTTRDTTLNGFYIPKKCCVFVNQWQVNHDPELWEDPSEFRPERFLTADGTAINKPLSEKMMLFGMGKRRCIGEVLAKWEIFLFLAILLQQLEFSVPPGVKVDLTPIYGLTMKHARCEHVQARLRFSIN

Cytochrome P450 2C9 = Cytochrome P450 2C9 (Homo sapiens, UniProt P11712)
Cytochrome P450 3A4 = Cytochrome P450 3A4 (Homo sapiens, UniProt P08684);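 further: CYP3A4 tested as one member of a cytochrome P450 panel screen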
[3] = target: T4, Hepatocyte nuclear factor 4-alpha (Homo sapiens, UniProt P41235); assay type: functional, cell-based;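 further: biochemical luminescence-based dose-response counterscreen measuring inhibition of HNF4 dimerization, run alongside a screen for blockers of ABHD5–perilipin-5 interaction; split luciferase complementation of HNF4 fusion proteins in cell lysate measuring dimerization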
T4 sequence (P41235 whole entry): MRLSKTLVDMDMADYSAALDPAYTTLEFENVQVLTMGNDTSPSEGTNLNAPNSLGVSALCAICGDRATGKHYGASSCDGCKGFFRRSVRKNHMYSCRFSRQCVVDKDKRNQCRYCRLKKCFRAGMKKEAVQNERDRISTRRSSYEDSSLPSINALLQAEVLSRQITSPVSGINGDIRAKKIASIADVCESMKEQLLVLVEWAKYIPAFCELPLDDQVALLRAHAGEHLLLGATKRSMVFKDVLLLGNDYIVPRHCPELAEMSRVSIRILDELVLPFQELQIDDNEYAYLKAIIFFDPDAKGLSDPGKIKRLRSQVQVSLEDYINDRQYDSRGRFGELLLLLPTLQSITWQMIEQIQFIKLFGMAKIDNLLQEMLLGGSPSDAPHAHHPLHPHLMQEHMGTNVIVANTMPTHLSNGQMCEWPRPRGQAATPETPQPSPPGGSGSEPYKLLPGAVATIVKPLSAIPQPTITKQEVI

Major prion protein = Major prion protein (Homo sapiens, UniProt P04156); assay type: functional, cell-based
Paired box protein Pax-8 = Paired box protein Pax-8 (Homo sapiens, UniProt Q06710); experiment: PAX8 transcriptional activity inhibition in RMG-I – RMG-I cells, luciferase, cherry-pick, dose response (AID 687027); assay type: functional, cell-based;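 further: luciferase reporter driven by Pax8 target thyroperoxidase promoter measured by SteadyGlo luminescence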
[4] = OVCAR-3 cell viability loss – plate reader, dry powder samples, PAX8 inhibitor project, dose response (AID 743044); assay type: functional, cell-based
[5] = A549 cell cytotoxicity, dose response, cytotoxicity control, plate reader, cherry-pick, antagonist series (AID 743412); assay type: functional, cell-based
[6] = toxicity toward HepG2 liver cells – cell-based, plate reader, cherry-pick, antagonist series, cytotoxicity control, dose response (AID 743416); assay type: functional
[7] = blockers of bursicon-stimulated LGR2 cAMP reporter – cell-based, HEK293, CRE-luciferase reporter, cherry pick, set 2, dose response (AID 743343); assay type: functional;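 further: transfected cells were stimulated with diluted bursicon conditioned medium after compound addition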
[8] = general cell-killing toxicity readout – plate reader, dry powder samples, cytotoxicity control for PAX8 inhibitor project, dose response (AID 743021); assay type: functional, cell-based
[9] = blockade of melanocortin 4 receptor signaling – cell-based, plate reader, cherry pick, counter-screen for LGR2 antagonist project, dose response (AID 743444); assay type: functional;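 further: transfected HEK 293 cells stimulated with alpha-MSH peptide; potency of inhibitors of the alpha-MSH evoked signal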
[10] = OVCAR8 cell viability loss – plate reader, dry powder samples, PAX8 project, dose response (AID 743197); assay type: functional, cell-based; conditions: OVCAR-8
[11] = viability loss in HEK293 cells – cell-based, plate reader, cherry-picked samples, cytotoxicity control, dose response (AID 743446); assay type: functional
[12] = target: Glucose-6-phosphate 1-dehydrogenase (Homo sapiens, UniProt P11413); experiment: inhibition of Homo sapiens G6PD, dose series – biochemical, fluorescence, selectivity assay for P. falciparum G6PD inhibitor project, dose response (AID 504792); assay type: functional
[13] = target: Heat shock protein HSP 90-alpha (Homo sapiens, UniProt P07900); assay type: functional, organism-based
[14] = target: T5, Probable nicotinate-nucleotide adenylyltransferase (Staphylococcus aureus (strain N315), UniProt P65502); assay type: functional, Staphylococcus aureus subsp. aureus N315;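 on IC50 Mean: confirmatory dose-response retesting of NadD inhibitor hits first found in an ultra-high-throughput screen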
[15] = target: T5, Probable nicotinate-nucleotide adenylyltransferase; assay type: functional, Staphylococcus aureus subsp. aureus N315; conditions: read-out: IC50_Mean
[16] = viability loss in HeLa cells – cytotoxicity control for MgcRacGAP inhibitor project, dose response (AID 624300); assay type: functional
[17] = target: T6, Rac GTPase-activating protein 1 (Homo sapiens, UniProt Q9H0H5); experiment: blockers of MgcRacGAP-driven Rac1 GTP hydrolysis – biochemical, ADP Hunter fluorescence, primary and confirmatory, confirmation (AID 624330); assay type: functional
T6 sequence (Q9H0H5 whole entry): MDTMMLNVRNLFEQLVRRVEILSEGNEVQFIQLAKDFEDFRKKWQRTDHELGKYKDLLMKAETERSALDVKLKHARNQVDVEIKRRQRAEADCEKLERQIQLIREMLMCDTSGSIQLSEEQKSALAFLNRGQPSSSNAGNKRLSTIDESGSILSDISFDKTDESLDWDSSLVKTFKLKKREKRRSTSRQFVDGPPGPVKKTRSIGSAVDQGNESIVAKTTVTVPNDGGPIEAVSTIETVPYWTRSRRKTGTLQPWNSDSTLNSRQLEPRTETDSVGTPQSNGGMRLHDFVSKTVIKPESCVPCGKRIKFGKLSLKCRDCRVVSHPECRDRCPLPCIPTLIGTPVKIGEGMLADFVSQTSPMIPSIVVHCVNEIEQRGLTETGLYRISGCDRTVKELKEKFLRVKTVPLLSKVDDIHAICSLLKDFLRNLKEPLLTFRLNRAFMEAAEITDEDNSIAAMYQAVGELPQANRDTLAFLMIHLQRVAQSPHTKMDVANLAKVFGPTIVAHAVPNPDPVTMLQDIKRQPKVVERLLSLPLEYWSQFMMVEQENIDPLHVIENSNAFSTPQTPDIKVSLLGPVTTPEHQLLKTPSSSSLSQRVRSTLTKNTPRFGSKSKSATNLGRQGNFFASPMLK

[18] = blockers of HIV-1 envelope-mediated cell-cell fusion – cherry-pick, dose response (AID 652057); assay type: functional, cell-based
[19] = viability loss in CEM21 cells – cell-based, CellTiter-Glo luminescence, cherry-picked, cytotoxicity control for viral fusion inhibitor project, dose response (AID 652042); assay type: functional;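 further: potency for signal decrease meaning cytotoxicity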
[20] = blockers of HIV-1 ZM109 envelope-driven cell-cell fusion – HeLa effector, CEM target cells, luciferase, cherry-pick, dose response (AID 652058); assay type: functional, cell-based;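 further: luciferase signal from HIV-1 Env mediated cell-cell fusion of effector and target cells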
[21] = off-target signal loss in HeLa-CEM21 co-culture – HeLa F-luc CTL cells, cherry-picked, counter-screen for HIV-1 Env fusion inhibitor project, dose response (AID 652040); assay type: functional, cell-based;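 further: potency for signal decrease marking cytotoxic or nonspecific inhibition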
[22] = HIV-1 AD8 envelope cell-cell fusion blockers – cherry-pick, dose response (AID 652062); assay type: functional, cell-based;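 further: luciferase signal from cell-cell fusion driven by HIV-1 clade B AD8 Env; potency is for inhibitors of fusion seen as a drop in luminescence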

Q: Which results are given for `CCOC(=O)c1c(NC(=O)c2ccc(S(=O)(=O)N3CCOCC3)cc2)sc2c1CCN(C)C2`?
A: AC50 [1]: 15.3 µM (active); AC50 [2]: 11.6 µM (active); AC50 (Cytochrome P450 1A2): 12.6 µM (inconclusive); AC50 (Cytochrome P450 2C9): 14.1 µM (inconclusive); AC50 (Cytochrome P450 3A4): inconclusive

Q: With `CCCCCNC(=O)C(c1ccc(C(F)(F)F)cc1)n1c(=O)c(-c2ccco2)nc2ccccc21` (configuration not stated) as the compound, how does the IC50 [3] read?
A: Its IC50 is 2.85 µM (active).

Q: For `Cn1nc(C(F)(F)F)c(/C=N/OC(=O)c2ccccc2Cl)c1SCc1ccccc1Cl`, which IC50 (Major prion protein) is on record?
A: Its IC50 is 4.68 µM (active).

Q: And the IC50 (cells)?
A: Its IC50 is > 138 µM (inactive).

Q: Which results are given for `O=C(C1=C(O)C(=O)N(CCN2CCOCC2)C1c1cccc(Br)c1)c1cc2ccccc2o1` (configuration not stated)?
A: IC50 (Major prion protein): 3.22 µM (active); IC50 (cells): > 138 µM (inactive)

Q: For `O=S(=O)(c1ccccc1F)N1CC[C@@H]2[C@H]1c1cc(-c3cccc(F)c3)ccc1N[C@@H]2CO`, which AC50 (Paired box protein Pax-8) is on record?
A: The AC50 was 4.09 µM (active).

Q: And the AC50 [4]?
A: Its AC50 is 49 µM (active).

Q: What about the AC50 [5] of the same compound?
A: Its AC50 is 8.1 µM (active).

Q: And the AC50 [6]?
A: The AC50 was 18.6 µM (active).

Q: And the AC50 [7]?
A: The AC50 was 11.1 µM (active).

Q: What about the AC50 [8] of the same compound?
A: The AC50 was 5.52 µM (active).

Q: And the AC50 [9]?
A: The AC50 was 11.2 µM (active).

Q: And the AC50 [10]?
A: Its AC50 is 15.6 µM (active).

Q: What about the AC50 [11] of the same compound?
A: The AC50 was 15.3 µM (active).

Q: What does the source list for `O=[N+]([O-])c1cccc(SSc2cccc([N+](=O)[O-])c2)c1`?
A: IC50 [12]: > 80 µM (inactive); AC50 [13]: 4.25 µM (active); IC50 [14]: 1.62 µM (active); IC50 [15]: 3.73 µM (active); CC50 [16]: 100 µM (active); IC50 [17]: 53.9 µM (active)

Q: For `Cc1ccc(NC(=O)c2ccc(-c3nn(C)c(=O)c4ccccc34)cc2)cc1`, which AC50 [18] is on record?
A: Its AC50 is 24.9 µM (active).

Q: And the AC50 [19]?
A: The AC50 was 57.8 µM (active).

Q: What about the AC50 [20] of the same compound?
A: The AC50 was 3.31 µM (active).

Q: And the AC50 [21]?
A: Its AC50 is 16.8 µM (active).

Q: And the AC50 [22]?
A: Its AC50 is 6.49 µM (active).

Q: Which AC50 [18] does the source give for `C/C=C/c1ccc(OCCOCCNCc2ccccc2)c(OC)c1` here?
A: Its AC50 is 3.51 µM (active).

Q: And the AC50 [19]?
A: The AC50 was 33.7 µM (active).

Q: What about the AC50 [20] of the same compound?
A: The AC50 was 5.73 µM (active).

Q: And the AC50 [21]?
A: Its AC50 is 4.93 µM (active).

Q: And the AC50 [22]?
A: Its AC50 is 12.2 µM (active).

Q: Which IC50 (Major prion protein) does the source give for `COC(=O)CSc1ncnc2scc(-c3ccccc3)c12` here?
A: The IC50 was 5.59 µM (active).

Q: What about the IC50 (cells) of the same compound?
A: The IC50 was > 138 µM (inactive).
